Laboratory results reported in paper PMC5607274, “An iterative compound screening contest method for identifying target protein inhibitors using the tyrosine-protein kinase Yes” (Scientific Reports, 2017).

Target: T1, human recombinant Yes [a.a. 2–543 (end)] (Homo sapiens, UniProt P07947)
T1 construct: human recombinant Yes [a.a; 2–543 (end)]; purchased BPS Bioscience 40488
Assay: ADP-Glo kinase assay, inhibition rates of Yes phosphorylation activity (first and second screening)
Format: biochemical
Conditions: 10 μmol L−1 compound; for First screening IR (inhibition rate): mean of n = 4 wells; for Second screening IR (inhibition rate): dissolved from fresh powder, n = 4
Summary of the method: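 ADP-Glo luminescence measured inhibition of human recombinant Yes (a.a. 2–543) phosphorylation activity. In the first screen, each compound ran in 4 wells and inhibition rates were averaged. The second screen retested hits as compounds dissolved from fresh powder.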

T1 sequence (P07947 2-543): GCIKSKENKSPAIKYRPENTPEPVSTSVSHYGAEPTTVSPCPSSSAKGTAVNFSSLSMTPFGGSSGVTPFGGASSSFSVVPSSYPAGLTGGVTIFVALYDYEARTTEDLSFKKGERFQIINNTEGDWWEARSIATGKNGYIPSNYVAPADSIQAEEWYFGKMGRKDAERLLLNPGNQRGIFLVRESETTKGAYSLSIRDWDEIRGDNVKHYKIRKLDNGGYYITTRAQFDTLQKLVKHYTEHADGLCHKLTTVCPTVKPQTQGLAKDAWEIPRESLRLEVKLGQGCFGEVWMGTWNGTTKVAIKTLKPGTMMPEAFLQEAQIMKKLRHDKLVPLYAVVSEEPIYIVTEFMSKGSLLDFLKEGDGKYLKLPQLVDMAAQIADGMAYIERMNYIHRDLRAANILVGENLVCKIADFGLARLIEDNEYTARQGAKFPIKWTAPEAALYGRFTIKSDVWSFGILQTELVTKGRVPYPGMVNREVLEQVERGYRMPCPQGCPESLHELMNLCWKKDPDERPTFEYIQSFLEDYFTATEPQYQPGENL

Row | Compound | First screening IR (inhibition rate) | Second screening IR (inhibition rate)
1 | Cl.Fc1ccccc1-c1cc(-c2ccccc2)c2ccccc2n1 [Compound Z48951009] | 5% | –
2 | CCN(C(=O)CN1CCN(Cc2ccc3c(c2)OCO3)CC1)c1c(N)n(Cc2ccccc2)c(=O)[nH]c1=O [Compound Z46204583] | 4% | –
3 | CCC(C)(C)C1C/C(=C/c2ccc(C(C)C)cc2)c2nc3ccccc3c(C(=O)O)c2C1 (stereo not drawn) [Compound Z46116606] | 13% | –
4 | CC1CCC(C(C)C)C(OC(=O)CSc2ncnc3ccccc23)C1 (stereo not drawn) [Compound Z19316042] | 0% | –
5 | Cc1c(-c2ccc(O)cc2)nc2ccc(Cl)cc2c1-c1ccccc1Cl.Cl [Compound Z48951741] | 40% | –
6 | C=CCNc1nc(C(=O)OCc2csc(-c3ccccc3)n2)cs1 [Compound Z17964966] | 18% | –
7 | Cc1cc(F)ccc1NC(=O)C(C)Oc1cccc(Cl)c1 (stereo not drawn) [Compound Z29827650] | 11% | –
8 | NS(=O)(=O)c1ccc(Cl)c(S(N)(=O)=O)c1 [Compound Z56877166] | 0% | –
9 | CCc1cccc(OCC(=O)C(C#N)c2nc3ccccc3[nH]2)c1 (stereo not drawn) [Compound Z56595958] | 2% | –
10 | Cc1nn(C2CCS(=O)(=O)C2)c2nc(C3CC3)cc(C(=O)NCc3ccc4c(c3)OCO4)c12 (stereo not drawn) [Compound Z60362928] | 5% | –
11 | Cc1ccc(-c2nn3c(=O)c4c5c(sc4nc3c3ccccc23)CCCC5)cc1 [Compound Z55163996] | 4% | –
12 | Cc1nn(-c2ccccc2)c2nc(-c3ccccc3)cc(C(F)(F)F)c12 [Compound Z55426459] | -6% | –
13 | N#CC(C(=O)NCc1ccc2c(c1)OCO2)c1nc2ccccc2nc1N1CCN(Cc2ccccc2)CC1 (stereo not drawn) [Compound Z56854297] | -7% | –
14 | COc1ccc(-c2cc(NC(=O)C3CCC(=O)N3)ccc2OC(F)F)cc1 (stereo not drawn) [Compound Z70775126] | -6% | –
15 | Cc1sc2nc(-c3cccnc3)nc(N3CCOCC3)c2c1-c1ccccc1 [Compound Z31211547] | 13% | –
16 | CCN(CC)CCNC(=O)c1ccc(NC(=O)C2CCN(c3ncnc4sc(C)c(C)c34)CC2)cc1 [Compound Z79604730] | -1% | –
17 | Cc1noc(C)c1COc1ccc(C(=O)NCCCn2ccc3ccccc32)cc1 [Compound Z32811942] | 3% | –
18 | COC(=O)/C(=C\C1=C2OC(c3ccccc3)=CC(c3ccccc3)=C2CCC1)C(C)=O [Compound Z56781644] | 7% | –
19 | CC(=O)Nc1ccc(/C=C2/CCCc3c2nc2ccccc2c3C(=O)O)cc1 [Compound Z46035730] | 5% | –
20 | Nc1ncnc(Nc2cccc(C(F)(F)F)c2)n1 [Compound Z56931708] | 13% | –
21 | Cc1ccc(-c2c3c(nc4sc5c(c24)CCC5)CCC(C(C)(C)C)C3)cc1.Cl (stereo not drawn) [Compound Z48952614] | 4% | –
22 | COc1cc(/C=N/Nc2ncnc3sc(C)c(C)c23)ccc1O [Compound Z49890548] | 21% | –
23 | CCN(CC)c1ccc(/C=C2\CCC(/C=N/NC(=O)NC3CCCCC3)=C2N2CCOCC2)cc1 [Compound Z56769590] | -9% | –
24 | O=S(=O)(Cl)c1ccc(S(=O)(=O)N2CCCC2)cc1 [Compound Z56979291] | 9% | –
25 | O=c1c2ccc3c(=O)n4c5cccc6cccc(nc4c4ccc(c2c34)c2nc3ccccc3n12)c65 [Compound Z56768422] | -6% | –
26 | Cc1ccc(C)c(S(=O)(=O)CCN(C)Cc2nc3ccccc3c(=O)[nH]2)c1 [Compound Z46302631] | -9% | –
27 | Cc1ccc(/C=C/C2=Cc3c(sc(N)c3C#N)C(C)(C)C2)o1 [Compound Z56910454] | 31% | 36%
28 | O=S(=O)(c1c(Cl)cccc1Cl)N1CCN(Cc2nc3ccccc3s2)CC1 [Compound Z45503858] | 3% | –
29 | O=C(O)c1cccc(N/N=C/c2ccc(N(c3ccccc3)c3ccccc3)cc2)c1 [Compound Z49584790] | 18% | –
30 | O=C(Cc1cn2ccsc2n1)NCCN1C(=O)S/C(=C/c2cccnc2)C1=O [Compound Z27116942] | 12% | –

Continued, values first:

Row | First screening IR (inhibition rate) | Second screening IR (inhibition rate) | Compound
31 | 12% | – | Cc1noc(C)c1S(=O)(=O)N1CCN(C(=O)CCc2c(C)[nH]c(=O)c(C#N)c2C)CC1 [Compound Z115241120]
32 | 4% | – | Cn1c(CSc2n[nH]c(-c3ccccc3F)n2)nc2ccccc21 [Compound Z982182198]
33 | -1% | – | CC(=O)c1cccc(NC(=O)c2cc(-c3ccco3)nc3c2cnn3C(C)C)c1 [Compound Z216416610]
34 | -4% | – | CC1(C)CN(S(=O)(=O)C2CS(=O)(=O)c3ccccc32)CCO1 (stereo not drawn) [Compound Z1031114832]
35 | -25% | – | COc1cc(NC(=O)Cc2c(C)[nH]c3ccccc23)c(C(N)=O)cc1OC [Compound Z917537988]
36 | 2% | – | Cc1ccc(S(=O)(=O)N(C)C2CCS(=O)(=O)C2)cc1C (stereo not drawn) [Compound Z89320796]
37 | 5% | – | CNC(=O)c1cnc(/C=C/c2cccnc2)s1 [Compound Z1029489284]
38 | -12% | – | CC(NC(=O)C(C)N1CCCN(Cc2ccc(C#N)cc2)CC1)c1ccccc1 (stereo not drawn) [Compound Z229381330]
39 | 2% | – | CC1CC(CNC(=O)c2ccc(O)cc2F)CN1Cc1ccccc1 (stereo not drawn) [Compound Z1735017324]
40 | -4% | – | CN(C)S(=O)(=O)CCCS(=O)(=O)Cc1ccc(Cl)cc1 [Compound Z1127660880]
41 | -9% | – | Cc1nc2c(cc1C(=O)NCCNc1ccccc1[N+](=O)[O-])c(C)nn2C [Compound Z355820588]
42 | -1% | – | CN(c1ccc(I)cc1)S(=O)(=O)c1cn[nH]c1 [Compound Z805651486]
43 | 48% | – | O=C(c1ccoc1)N1CCN(c2ncnc3cc(-c4ccc(F)cc4)sc23)CC1 [Compound Z373317194]
44 | 7% | – | COC1CN(C(=O)c2cn(-c3ccccc3)nc2-c2cccnc2)C1 [Compound Z1203241726]
45 | -4% | – | CS(=O)(=O)CS(=O)(=O)C(F)(F)F [Compound Z540725378]
46 | 8% | – | CCCCN(C)c1ccc(S(C)(=O)=O)cc1S(C)(=O)=O [Compound Z199538358]
47 | -11% | – | O=C(O)/C(=C\c1cccc(C(F)(F)F)c1)Sc1nnc(-c2ccco2)o1 [Compound Z95207137]
48 | -3% | – | O=S(=O)(c1ccccc1Cl)N1CCN(Cc2nc(-c3cccc(Cl)c3)no2)CC1 [Compound Z90240663]
49 | 4% | – | Cn1ncc2c(N3CCN(CC[S+]([O-])c4cc(Cl)ccc4Cl)CC3)ncnc21 (stereo not drawn) [Compound Z445169626]
50 | -2% | – | CCC1CN(C(=O)OCc2ccccc2)C(CC)CN1C(=O)CCc1cnn(C)c1 (stereo not drawn) [Compound Z1251624666]

Row | First screening IR (inhibition rate) | Second screening IR (inhibition rate) | Compound
51 | 5% | – | CC(C)c1nncn1CCNC(=O)C(c1cc(Cl)cc(Cl)c1)N(C)C (stereo not drawn) [Compound Z1430823330]
52 | 43% | – | CCN1CCCN(S(=O)(=O)c2ccccc2S(C)(=O)=O)CC1 [Compound Z1127188257]
53 | 0% | – | Cc1cc(CN2CCSCC2)ccc1NC(=O)c1ccnc(N(C)C)c1 [Compound Z978895402]
54 | -24% | – | CCCN1CCN(c2ccc(Nc3ccc4nnnn4n3)cc2Cl)CC1 [Compound Z815791244]
55 | 42% | – | Cc1ccccc1C1CCCN1c1ncnc2nc[nH]c12 (stereo not drawn) [Compound Z1343261311]
56 | -7% | – | CC(C)(C)c1nc(SCC(=O)c2ccc3c(c2)CCC3)n[nH]1 [Compound Z335958518]
57 | -8% | – | CNC(=O)NC(=O)COC(=O)c1cc(-c2ccccc2)nc2c1cnn2Cc1ccccc1 [Compound Z228518838]
58 | 6% | – | CCNC(=O)c1cc(-c2ccccc2)nc2c1cnn2Cc1ccccc1 [Compound Z227991512]
59 | -4% | – | Cc1cccc(C(C)C)c1NC(=O)CN1CCCCC1Cc1ccccc1 (stereo not drawn) [Compound Z991917352]
60 | 38% | – | Cn1nc(Br)c2c(N3CCCC34CCCCC4)ncnc21 [Compound Z1527076521]
61 | 8% | – | CS(=O)(=O)c1ccc(S(=O)(=O)N2CCCC2)cc1 [Compound Z285664940]
62 | 7% | – | FC(F)(F)c1ccnc(Nc2ccc(N3CCOCC3)cc2)n1 [Compound Z285679120]
63 | 51% | -10% | CS(=O)(=O)c1ccc(N2CCCCCC2)c(S(C)(=O)=O)c1 [Compound Z199538216]
64 | -5% | – | O=C(CN1CCOCC1)N1CCN(Cn2nc(-c3ccccc3)n(-c3ccc(F)cc3)c2=S)CC1 [Compound Z238616284]
65 | -9% | – | Cc1occc1S(=O)(=O)CCCS(=O)(=O)C(C)C [Compound Z1822689954]
66 | 11% | – | c1ccc(-n2ncc3c(SCCc4ccncc4)ncnc32)cc1 [Compound Z103069550]
67 | -1% | – | CS(=O)(=O)CCS(=O)(=O)c1ccc(N)cc1 [Compound Z808591212]
68 | 6% | – | Cc1cc(F)cc2[nH]c(C(=O)NC3CN(C(=O)OC(C)(C)C)CC3C#N)cc12 (stereo not drawn) [Compound Z1671371372]
69 | -16% | – | Cc1cc(CN(C)C(=O)NCc2ccc(N3CCCC3=O)cc2)no1 [Compound Z485637938]
70 | 2% | – | FC(F)(F)c1ccnc(Nc2cn[nH]c2)n1 [Compound Z397745198]
